Assays:
IGROV-ET = experiment: Inhibition of cells growth by colorimetric assay (SRB); details: Homo sapiens, 48 h; for GI50: read-out: IGROV-ET GI50; for CC50: read-out: IGROV-ET LC50; for IC (TGI): read-out: IGROV-ET TGI
Method in brief: (§1)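 Colorimetric SRB read (490 nm) on triplicate wells after 48 h at 37 °C, 5% CO2. Dose range 10 to 10^−8 μg/ml; 5×10^3 cells/well pre-attached 18 h.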

PANC-1 = experiment: as above; details: Homo sapiens, PANC-1, 48 h; for GI50: read-out: PANC-1 GI50; for CC50: read-out: PANC-1 LC50; for IC (TGI): read-out: PANC-1 TGI
Method in brief: as §1

SK-MEL-28 = experiment: as above; details: Homo sapiens, SK-MEL-28, 48 h; for GI50: read-out: MEL-28 GI50; for CC50: read-out: MEL-28 LC50; for IC (TGI): read-out: MEL-28 TGI
Method in brief: as §1

LoVo-Dox = experiment: as above; details: Homo sapiens, 48 h; for GI50: read-out: LOVO-DOX GI50; for CC50: read-out: LOVO-DOX LC50; for IC (TGI): read-out: LOVO-DOX TGI
Method in brief: as §1

K-562 = experiment: as above; details: Homo sapiens, K562, 48 h; for GI50: read-out: K562 GI50; for CC50: read-out: K562 LC50; for IC (TGI): read-out: K562 TGI
Method in brief: as §1

LNCaP = experiment: as above; details: Homo sapiens, LNCaP, 48 h; for GI50: read-out: LNCAP GI50; for CC50: read-out: LNCAP LC50; for IC (TGI): read-out: LNCAP TGI
Method in brief: as §1

HeLa-APL = experiment: as above; details: Homo sapiens, 48 h; for GI50: read-out: HELA-APL GI50; for CC50: read-out: HELA-APL LC50; for IC (TGI): read-out: HELA-APL TGI
Method in brief: as §1

DU-145 = experiment: as above; details: Homo sapiens, DU-145, 48 h; for GI50: read-out: DU145 GI50; for CC50: read-out: DU145 LC50; for IC (TGI): read-out: DU145 TGI
Method in brief: as §1

SK-BR-3 = experiment: as above; details: Homo sapiens, SK-BR-3, 48 h; for GI50: read-out: SK-BR3 GI50; for CC50: read-out: SK-BR3 LC50; for IC (TGI): read-out: SK-BR3 TGI
Method in brief: as §1

IGROV-1 = experiment: as above; details: Homo sapiens, IGROV-1, 48 h; for GI50: read-out: IGROV GI50; for CC50: read-out: IGROV LC50; for IC (TGI): read-out: IGROV TGI
Method in brief: as §1

HeLa = experiment: as above; details: Homo sapiens, HeLa, 48 h; for GI50: read-out: HELA GI50; for CC50: read-out: HELA LC50; for IC (TGI): read-out: HELA TGI
Method in brief: as §1

LoVo = experiment: cells; details: Homo sapiens, LoVo, 48 h; for GI50: read-out: LOVO GI50; for CC50: read-out: LOVO LC50; for IC (TGI): read-out: LOVO TGI
Method in brief: as §1

A-549 = experiment: cells; details: Homo sapiens, A549, 48 h; for GI50: read-out: A549 GI50; for CC50: read-out: A549 LC50; for IC (TGI): read-out: A549 TGI
Method in brief: as §1

HT-29 = experiment: cells; details: Homo sapiens, HT-29, 48 h; for GI50: read-out: HT29 GI50; for CC50: read-out: HT29 LC50; for IC (TGI): read-out: HT29 TGI
Method in brief: as §1

`COc1c(C)cc2c(c1O)[C@H]1N[C@@H](C2)[C@H](O)N2C1[C@@H]1SC[C@]3(NCCc4c3[nH]c3ccc(C)cc43)C(=O)OC[C@H]2c2c3c(c(C)c(OC(C)=O)c21)OCO3` (stereo partly drawn) [compound 66] gave a GI50 (IGROV-ET) of 38.3 nM, a CC50 (IGROV-ET) of 5590 nM and an IC (TGI) (IGROV-ET) of 179 nM. The GI50 (PANC-1) was 4.57 nM, the CC50 (PANC-1) was 6400 nM and the IC (TGI) (PANC-1) was 23.4 nM. The GI50 (SK-MEL-28) was 5.34 nM, the CC50 (SK-MEL-28) was 74.5 nM and the IC (TGI) (SK-MEL-28) was 18.9 nM. The GI50 (LoVo-Dox) was 370 nM, the CC50 (LoVo-Dox) was 13200 nM and the IC (TGI) (LoVo-Dox) was 1890 nM. For the same compound, the GI50 (K-562) was 4.33 nM, the CC50 (K-562) was 484 nM and the IC (TGI) (K-562) was 12.5 nM. The GI50 (LNCaP) was 1.99 nM, the CC50 (LNCaP) was 7.39 nM and the IC (TGI) (LNCaP) was 3.83 nM. The GI50 (HeLa-APL) was 3.05 nM, the CC50 (HeLa-APL) was 12.7 nM and the IC (TGI) (HeLa-APL) was 6.24 nM. The GI50 (DU-145) was 3.39 nM, the CC50 (DU-145) was 3860 nM and the IC (TGI) (DU-145) was 1.6 nM. The GI50 (SK-BR-3) was 6.5 nM, the CC50 (SK-BR-3) was 13200 nM and the IC (TGI) (SK-BR-3) was 331 nM. The GI50 (IGROV-1) was 2.99 nM, the CC50 (IGROV-1) was 160 nM and the IC (TGI) (IGROV-1) was 6.76 nM. The GI50 (HeLa) was 2.41 nM, the CC50 (HeLa) was 9.07 nM and the IC (TGI) (HeLa) was 4.68 nM. For the same compound, the GI50 (LoVo) was 5.27 nM, the CC50 (LoVo) was 4350 nM and the IC (TGI) (LoVo) was 20.9 nM. It also gave a GI50 (A-549) of 7.62 nM, a CC50 (A-549) of 874 nM and an IC (TGI) (A-549) of 39.7 nM. The GI50 (HT-29) was 5.86 nM, the CC50 (HT-29) was 13200 nM and the IC (TGI) (HT-29) was 181 nM.
With `C=CCN1[C@@H]2c3c(cc(C)c(OC)c3O)C[C@H]1[C@H](O)N1C2[C@@H]2SC[C@]3(NCCc4cc(O)c(OC)cc43)C(=O)OC[C@H]1c1c3c(c(C)c(OC(C)=O)c12)OCO3` (stereo partly drawn) [compound 67] the GI50 (IGROV-ET) was 26.8 nM, the CC50 (IGROV-ET) was 2680 nM and the IC (TGI) (IGROV-ET) was 62.7 nM. For the same compound, the GI50 (PANC-1) was 27.4 nM, the CC50 (PANC-1) was 2780 nM and the IC (TGI) (PANC-1) was 92.7 nM. For the same compound, the GI50 (SK-MEL-28) was 20.4 nM, the CC50 (SK-MEL-28) was 100 nM and the IC (TGI) (SK-MEL-28) was 45.3 nM. For the same compound, the GI50 (LoVo-Dox) was 368 nM, the CC50 (LoVo-Dox) was 12700 nM and the IC (TGI) (LoVo-Dox) was 975 nM. The GI50 (K-562) was 33.9 nM, the CC50 (K-562) was 2090 nM and the IC (TGI) (K-562) was 39.7 nM. For the same compound, the GI50 (LNCaP) was 3 nM, the CC50 (LNCaP) was 37.4 nM and the IC (TGI) (LNCaP) was 9 nM. The GI50 (HeLa-APL) was 29.7 nM, the CC50 (HeLa-APL) was 327 nM and the IC (TGI) (HeLa-APL) was 64.7 nM. For the same compound, the GI50 (DU-145) was 35.9 nM, the CC50 (DU-145) was 3500 nM and the IC (TGI) (DU-145) was 75.4 nM. For the same compound, the GI50 (SK-BR-3) was 8.71 nM, the CC50 (SK-BR-3) was 284 nM and the IC (TGI) (SK-BR-3) was 37.4 nM. The GI50 (IGROV-1) was 31.2 nM, the CC50 (IGROV-1) was 685 nM and the IC (TGI) (IGROV-1) was 78.6 nM. The GI50 (HeLa) was 30.2 nM, the CC50 (HeLa) was 395 nM and the IC (TGI) (HeLa) was 67.4 nM. For the same compound, the GI50 (LoVo) was 28.6 nM, the CC50 (LoVo) was 10600 nM and the IC (TGI) (LoVo) was 73 nM. It also gave a GI50 (A-549) of 32.7 nM, a CC50 (A-549) of 797 nM and an IC (TGI) (A-549) of 68.7 nM. For the same compound, the GI50 (HT-29) was 37.9 nM, the CC50 (HT-29) was 11900 nM and the IC (TGI) (HT-29) was 102 nM.

From US7767659B2, “Synthesis of naturally occurring ecteinascidins and related compounds” (Pharma Mar, S.A., priority 2002, dated 2010)
